Key:
Aphidius rhopalosiphi = test: LR50; higher = less toxic; settings: not reported; mortality
Daphnia magna = settings: chronic/long-term; duration: 21 days; reproduction
Pimephales promelas = settings: chronic/long-term; duration: 28 days; growth
Folsomia candida = settings: chronic/long-term; duration: 28 days
Bibionidae = settings: chronic/long-term; duration: 28 days; reproduction
Tagia sp. = settings: acute; duration: 14 days; mortality
Oryctolagus sp. = settings: reproduction developmental; food consumption
Canidae = settings: chronic; duration: 1 years; oral; Dog Other; clinical chemistry
Apis mellifera = settings: acute; oral; unspecified; mortality

SMILES: O=C(Cc1ccccc1)N/C(=N\OCC1CC1)c1c(C(F)(F)F)ccc(F)c1F [Cyflufenamid]
- LR50 (Aphidius rhopalosiphi): 50 g/ha
- LC50 (Colinus virginianus; acute, oral, diet, mortality): > 743 mg/kg-day
- LD50 (Colinus virginianus; acute, oral, mortality): > 2000 mg/kg-day
- NOEC (Colinus virginianus; reproduction developmental): 98 mg/kg-day
- NOEC (Daphnia magna): 0.0406 mg/L
- NOEC (Pimephales promelas): 0.024 mg/L
- LD50 (Rattus norvegicus; acute, oral, mortality): > 5000 mg/kg-day
- NOAEL (Rattus norvegicus; chronic, duration: 2 years, F, histopathology: nonneoplastic): 4.4 mg/kg-day
- NOAEL (Rattus norvegicus; chronic, duration: 2 years, M, histopathology: nonneoplastic): 4.4 mg/kg-day
- NOEC (Rattus norvegicus; reproduction developmental, mortality): 800 mg/kg-day
- NOAEL (Rattus norvegicus; reproduction developmental, reproduction): 57 mg/kg-day
- NOEC (Folsomia candida): > 0.0178 mg/kg
- NOEC (Bibionidae): 1 mg/L
- LC50 (Tagia sp.): > 500 mg/kg
- NOAEL (Oryctolagus sp.): 5 mg/kg-day
- NOAEL (Canidae): 4.1 mg/kg-day
- LD50 (Apis mellifera): > 100 µg/piece

Source: EPA's ToxValDB 9.5 (doi:10.2903/j.efsa.2009.258r)
